Data published in patent US9376499B2, “PAR-1 activation by metalloproteinase-1 (MMP-1)” (Tufts Medical Center, Inc., priority 2009, dated 2016).
pIC50: −log10 of the molar value. Non-standard residues stand in square brackets, D forms with d. Residues, ends and D or L forms follow the SMILES beside them. *: point of attachment. 4Abz = Nc1ccc(C(=O)O)cc1; NHOH = ON*

What was measured:
MMP-1 [1] = target: T1, MMP-1 (Cavia porcellus, UniProt H0V812); experiment: Collagenase activity released from collagen-treated guinea pig platelets; type: biochemical; settings: 20 μg/ml collagen; 3 μM FN-439 or 20 μg/ml Ab
T1 construct: endogenous in cells; host or cells: platelets of Hartley guinea pigs
Experimental: Animal experiments were performed in accordance with the National Institutes of Health guidelines and approved by the Tufts Medical Center Institutional Animal Care and Use Committee. 2-4 week old Hartley guinea pigs (170-260 g) were anesthetized by an i.p. injection of xylazine (10 mg/kg) plus ketamine (50 mg/kg) and then catheterized via the left jugular vein and injected (200 μL) with either vehicle (20% DMSO/80% water), P1pal-7 or FN-439. For determination of collagen-dependent systemic platelet activation, 10 min after administration of inhibitors, 200 μg collagen in 200 μL of PBS was delivered via the jugular vein. Ten min after collagen injection, blood was collected into sodium citrate (1% v/v final) from the contralateral jugular vein and platelet counts were measured with a Hemavet850. The enzymatic activity of active MMP-1 in supernatants and platelet lysates was determined using DQ collagen I as fluorogenic substrate in the presence or absence of 3 μM FN-439, or 20 μg/ml of control IgG or a MMP-1 blocking Ab (preincubated for 2 h at 37° C.), as indicated.
Dashed grey line: secondary antibody alone; Solid lines: FACS profiles of platelets treated with the indicated concentrations of collagen for 15 min at 37° C. and then stained with primary MMP-1 (AB806) plus secondary antibodies.

MMP-1 [2] = target: T2, MMP-1 (Homo sapiens, UniProt P03956); settings: cited from earlier work
T2 sequence (P03956 100-469): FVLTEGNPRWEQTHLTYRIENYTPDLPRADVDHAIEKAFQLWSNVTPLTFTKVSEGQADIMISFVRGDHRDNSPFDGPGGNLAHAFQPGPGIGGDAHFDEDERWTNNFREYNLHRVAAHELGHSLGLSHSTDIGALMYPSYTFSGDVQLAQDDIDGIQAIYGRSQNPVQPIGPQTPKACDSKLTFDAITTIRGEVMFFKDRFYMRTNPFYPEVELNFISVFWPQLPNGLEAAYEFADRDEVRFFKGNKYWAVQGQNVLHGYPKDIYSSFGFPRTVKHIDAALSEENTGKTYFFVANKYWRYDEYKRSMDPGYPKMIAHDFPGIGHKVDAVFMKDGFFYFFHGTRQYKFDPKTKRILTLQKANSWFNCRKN

MMP-3 = MMP-3 (Homo sapiens, UniProt P08254); settings: cited from earlier work
MMP-8 = MMP-8 (Homo sapiens, UniProt P22894); settings: cited from earlier work
MMP-9 = MMP-9 (Homo sapiens, UniProt P14780); settings: cited from earlier work
MMP-1 [3] = target: T2, MMP-1; experiment: Collagenase (active MMP-1) activity of collagen-stimulated human platelets, DQ collagen I fluorogenic substrate; type: biochemical; set-up: endogenous in cells; host or cells: human platelets from healthy donors, stimulated with collagen, ADP or U-46619; settings: 3 μM FN-439 or 20 μg/ml blocking Ab; platelets treated with 20 μg/ml collagen
Experimental: The enzymatic activity of active MMP-1 in supernatants and platelet lysates was then determined. Human or guinea pig platelets from PRP were concentrated four-fold by centrifugation at 700 g for 25 min at room temperature, and then resuspended in 0.25 volume of PIPES containing 1 mM EDTA (final platelet count was 10^9/mL). Platelets were treated with PBS (buffer), 20 μM ADP, 20 μM U-46619, or 20 μg/ml collagen in the presence of 2.5 mM CaCl2. The platelets were incubated for 15 min at 37° C. with occasional gentle mixing. Platelets were collected by centrifugation at 10,000 g for 5 min at 4° C. and resuspended in lysis buffer (50 mM Tris HCl, 100 mM NaCl, 1 mM NaF, 5 mM EDTA, 0.1% (v/v) Triton X-100, 100 μM PMSF, pH 7.4) and then sheared with a 27 gauge needle.
The enzymatic activity of active MMP-1 in supernatants and platelet lysates was measured using DQ collagen I (Molecular Probes) as fluorogenic substrate and reporter of collagenase activity substrate (Boire et al., 2005) in the presence or absence of 3 μM FN-439, or 20 μg/ml each of control IgG, MMP-1 blocking Ab, MMP-8 blocking Ab or MMP-13 blocking Ab (preincubated for 2 h at 37° C.), as indicated with APMA-activated MMP-1 serving as control (FIG. 1A, striped bars). […]

Sequence of MMP-3 (P08254 100-477, species assumed): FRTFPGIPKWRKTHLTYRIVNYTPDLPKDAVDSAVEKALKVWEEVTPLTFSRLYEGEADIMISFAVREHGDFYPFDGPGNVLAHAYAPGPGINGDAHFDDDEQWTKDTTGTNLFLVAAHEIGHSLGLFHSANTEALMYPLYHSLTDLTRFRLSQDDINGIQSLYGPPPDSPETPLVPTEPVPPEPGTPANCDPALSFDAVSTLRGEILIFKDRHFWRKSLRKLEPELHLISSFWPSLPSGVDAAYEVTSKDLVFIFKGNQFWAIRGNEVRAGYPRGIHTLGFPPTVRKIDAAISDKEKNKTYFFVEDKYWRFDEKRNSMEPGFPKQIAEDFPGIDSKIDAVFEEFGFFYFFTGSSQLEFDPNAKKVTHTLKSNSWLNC
T1 sequence (H0V812 1-472): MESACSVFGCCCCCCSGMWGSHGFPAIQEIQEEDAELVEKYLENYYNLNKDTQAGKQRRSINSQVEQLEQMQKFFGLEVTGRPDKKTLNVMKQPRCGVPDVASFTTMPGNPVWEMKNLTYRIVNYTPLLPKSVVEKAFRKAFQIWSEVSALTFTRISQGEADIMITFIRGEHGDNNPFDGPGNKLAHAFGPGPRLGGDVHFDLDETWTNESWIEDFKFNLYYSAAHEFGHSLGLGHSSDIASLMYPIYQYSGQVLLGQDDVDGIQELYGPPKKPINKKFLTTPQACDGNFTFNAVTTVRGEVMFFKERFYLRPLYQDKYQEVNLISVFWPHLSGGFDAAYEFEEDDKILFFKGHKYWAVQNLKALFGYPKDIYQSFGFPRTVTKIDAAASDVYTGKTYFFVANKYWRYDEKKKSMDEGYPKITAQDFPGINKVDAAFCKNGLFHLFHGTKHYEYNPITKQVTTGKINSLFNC
Sequence of MMP-9 (P14780 94-707, species assumed): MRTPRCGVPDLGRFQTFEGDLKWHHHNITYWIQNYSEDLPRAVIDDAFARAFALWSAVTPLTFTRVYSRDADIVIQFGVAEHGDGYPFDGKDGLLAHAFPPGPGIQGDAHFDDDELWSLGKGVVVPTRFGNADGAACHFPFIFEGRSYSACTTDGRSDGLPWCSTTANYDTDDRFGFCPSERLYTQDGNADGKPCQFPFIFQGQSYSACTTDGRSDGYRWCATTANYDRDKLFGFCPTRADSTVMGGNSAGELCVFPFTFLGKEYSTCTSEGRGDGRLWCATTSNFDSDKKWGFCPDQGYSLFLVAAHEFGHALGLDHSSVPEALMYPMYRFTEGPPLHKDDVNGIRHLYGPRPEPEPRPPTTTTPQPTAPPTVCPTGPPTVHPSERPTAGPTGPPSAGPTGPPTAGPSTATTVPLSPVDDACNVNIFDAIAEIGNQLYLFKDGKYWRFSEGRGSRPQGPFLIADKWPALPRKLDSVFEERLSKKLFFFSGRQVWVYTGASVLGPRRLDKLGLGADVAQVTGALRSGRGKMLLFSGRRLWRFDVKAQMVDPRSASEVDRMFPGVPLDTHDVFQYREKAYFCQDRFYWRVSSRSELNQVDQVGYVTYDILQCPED
Sequence of MMP-8 (P22894 101-467, species assumed): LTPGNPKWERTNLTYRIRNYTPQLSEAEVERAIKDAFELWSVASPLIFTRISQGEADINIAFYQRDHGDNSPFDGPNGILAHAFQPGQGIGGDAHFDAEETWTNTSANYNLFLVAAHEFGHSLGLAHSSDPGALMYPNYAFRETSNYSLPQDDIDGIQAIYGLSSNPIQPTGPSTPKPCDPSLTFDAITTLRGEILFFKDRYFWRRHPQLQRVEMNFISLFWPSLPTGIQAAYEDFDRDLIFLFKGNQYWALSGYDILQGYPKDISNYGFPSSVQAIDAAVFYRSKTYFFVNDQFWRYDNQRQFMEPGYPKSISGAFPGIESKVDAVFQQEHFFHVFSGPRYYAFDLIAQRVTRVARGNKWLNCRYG

block of collagenase activity released by collagen from guinea pig platelets (MMP-1 [1]): completely blocked
inhibition of platelet collagenase activity released by collagen (cleavage of fluorogenic collagen substrate) (MMP-1 [3]): completely blocked
SMILES: CC(C)C[C@@H](NC(=O)[C@@H]1CCCN1C(=O)CNC(=O)c1ccc(N)cc1)C(=O)N[C@H](C)C(=O)NO [FN-439] (H-[4Abz]GP[dL][dA]-{NHOH})
pIC50 (MMP-1 [2]): 6.00
pIC50 (MMP-3): 3.82
pIC50 (MMP-8): 6.00
pIC50 (MMP-9): 4.52
